Data reported in ChEMBL document CHEMBL3046126, “Synthesis and Herbicidal Activity of New Oxazolidinedione Derivatives” (J Pestic Sci, 1999).

Experiments:
Echinochloa crus-galli = test: Pre-emergence herbicidal activity against Echinochloa crus-galli (barnyard grass) assessed as phytotoxic weed control visual ratings at 500 g ai/ha measured after 14 days post treatment under upland field conditions; type: functional
Pontederia vaginalis [1] = test: Pre-emergence herbicidal activity against Monochoria vaginalis assessed as phytotoxic weed control visual ratings at 25 g ai/ha measured after 14 days post treatment under flooded conditions; type: functional
Digitaria ciliaris = test: Pre-emergence herbicidal activity against Digitaria ciliaris assessed as phytotoxic weed control visual ratings at 500 g ai/ha measured after 14 days post treatment under upland field conditions; type: functional
[2] = tested on: Schoenoplectiella juncoides; test: Pre-emergence herbicidal activity against Schoenoplectiella juncoides assessed as phytotoxic weed control visual ratings at 25 g ai/ha measured after 14 days post treatment under flooded conditions; type: functional
Elatine triandra [3] = test: Pre-emergence herbicidal activity against Elatine triandra assessed as phytotoxic weed control visual ratings at 25 g ai/ha measured after 14 days post treatment under flooded conditions; type: functional
Cyperus difformis [4] = test: Pre-emergence herbicidal activity against Cyperus difformis assessed as phytotoxic weed control visual ratings at 25 g ai/ha measured after 14 days post treatment under flooded conditions; type: functional
Amaranthus viridis = test: Pre-emergence herbicidal activity against Amaranthus viridis assessed as phytotoxic weed control visual ratings at 500 g ai/ha measured after 14 days post treatment under upland field conditions; type: functional
Lindernia procumbens [5] = test: Pre-emergence herbicidal activity against Lindernia procumbens assessed as phytotoxic weed control visual ratings at 25 g ai/ha measured after 14 days post treatment under flooded conditions; type: functional
Zea mays = test: Pre-emergence phytotoxicity against Zea mays (maize) assessed as phytotoxic crop injury visual ratings at 500 g ai/ha measured after 14 days post treatment under upland field conditions; type: organism-based; conditions: in vivo, other, 336 h
Oryza sativa [6] = test: Pre-emergence phytotoxicity against Oryza sativa cv. Koshihikari (rice) assessed as phytotoxic crop injury visual ratings at 25 g ai/ha measured after 14 days post treatment under flooded conditions; type: organism-based; conditions: in vivo, other, 336 h
Chenopodium album = test: Pre-emergence herbicidal activity against Chenopodium album assessed as phytotoxic weed control visual ratings at 500 g ai/ha measured after 14 days post treatment under upland field conditions; type: functional
Rotala indica [7] = test: Pre-emergence herbicidal activity against Rotala indica assessed as phytotoxic weed control visual ratings at 25 g ai/ha measured after 14 days post treatment under flooded conditions; type: functional
Echinochloa oryzicola [8] = test: Pre-emergence herbicidal activity against Echinochloa oryzicola assessed as phytotoxic weed control visual ratings at 25 g ai/ha measured after 14 days post treatment under flooded conditions; type: functional
Rotala indica [9] = test: Pre-emergence herbicidal activity against Rotala indica assessed as phytotoxic weed control visual ratings at 2.5 kg ai/ha measured after 14 days post treatment under flooded conditions; type: functional
Elatine triandra [10] = test: Pre-emergence herbicidal activity against Elatine triandra assessed as phytotoxic weed control visual ratings at 2.5 kg ai/ha measured after 14 days post treatment under flooded conditions; type: functional
Pontederia vaginalis [11] = test: Pre-emergence herbicidal activity against Monochoria vaginalis assessed as phytotoxic weed control visual ratings at 2.5 kg ai/ha measured after 14 days post treatment under flooded conditions; type: functional
[12] = tested on: Schoenoplectiella juncoides; test: Pre-emergence herbicidal activity against Schoenoplectiella juncoides assessed as phytotoxic weed control visual ratings at 2.5 kg ai/ha measured after 14 days post treatment under flooded conditions; type: functional
Oryza sativa [13] = test: Pre-emergence phytotoxicity against Oryza sativa cv. Koshihikari (rice) assessed as phytotoxic crop injury visual ratings at 2.5 kg ai/ha measured after 14 days post treatment under flooded conditions; type: organism-based; conditions: in vivo, other, 336 h
Lindernia procumbens [14] = test: Pre-emergence herbicidal activity against Lindernia procumbens assessed as phytotoxic weed control visual ratings at 2.5 kg ai/ha measured after 14 days post treatment under flooded conditions; type: functional
Echinochloa oryzicola [15] = test: Pre-emergence herbicidal activity against Echinochloa oryzicola assessed as phytotoxic weed control visual ratings at 2.5 kg ai/ha measured after 14 days post treatment under flooded conditions; type: functional
Cyperus difformis [16] = test: Pre-emergence herbicidal activity against Cyperus difformis assessed as phytotoxic weed control visual ratings at 2.5 kg ai/ha measured after 14 days post treatment under flooded conditions; type: functional
[17] = Selectivity index, ratio of ED10 for Oryza sativa to ED90 for Echinochloa oryzicola by post-emergence exposure method
Oryza sativa [18] = test: Post-emergence phytotoxicity against Oryza sativa cv. Koshihikari (rice) assessed as phytotoxic crop injury visual ratings measured after 14 days post treatment; type: organism-based; conditions: in vivo, 336 h
Oryza sativa [19] = test: Pre-emergence phytotoxicity against Oryza sativa cv. Koshihikari (rice) assessed as phytotoxic crop injury visual ratings measured after 14 days post treatment; type: organism-based; conditions: in vivo, 336 h
[20] = Selectivity index, ratio of ED10 for Oryza sativa to ED90 for Echinochloa oryzicola by pre-emergence exposure method
Echinochloa oryzicola [21] = test: Pre-emergence herbicidal activity against Echinochloa oryzicola assessed as phytotoxic weed control visual ratings at 1.25 kg ai/ha measured after 14 days post treatment under flooded conditions; type: functional
Oryza sativa [22] = test: Pre-emergence phytotoxicity against Oryza sativa cv. Koshihikari (rice) assessed as phytotoxic crop injury visual ratings at 1.25 kg ai/ha measured after 14 days post treatment under flooded conditions; type: organism-based; conditions: in vivo, other, 336 h
[23] = tested on: Schoenoplectiella juncoides; test: Pre-emergence herbicidal activity against Schoenoplectiella juncoides assessed as phytotoxic weed control visual ratings at 1.25 kg ai/ha measured after 14 days post treatment under flooded conditions; type: functional
Pontederia vaginalis [24] = test: Pre-emergence herbicidal activity against Monochoria vaginalis assessed as phytotoxic weed control visual ratings at 1.25 kg ai/ha measured after 14 days post treatment under flooded conditions; type: functional
Rotala indica [25] = test: Pre-emergence herbicidal activity against Rotala indica assessed as phytotoxic weed control visual ratings at 1.25 kg ai/ha measured after 14 days post treatment under flooded conditions; type: functional
Elatine triandra [26] = test: Pre-emergence herbicidal activity against Elatine triandra assessed as phytotoxic weed control visual ratings at 1.25 kg ai/ha measured after 14 days post treatment under flooded conditions; type: functional
Lindernia procumbens [27] = test: Pre-emergence herbicidal activity against Lindernia procumbens assessed as phytotoxic weed control visual ratings at 1.25 kg ai/ha measured after 14 days post treatment under flooded conditions; type: functional
Cyperus difformis [28] = test: Pre-emergence herbicidal activity against Cyperus difformis assessed as phytotoxic weed control visual ratings at 1.25 kg ai/ha measured after 14 days post treatment under flooded conditions; type: functional

Structure (SMILES): CCC(CC)Oc1cc(N2C(=O)OC(=C(C)C)C2=O)c(F)cc1Cl
- Phytotoxicity (Echinochloa crus-galli): 30%
- Phytotoxicity (Pontederia vaginalis [1]): 100%
- Phytotoxicity (Digitaria ciliaris): 60%
- Phytotoxicity [2]: 90%
- Phytotoxicity (Elatine triandra [3]): 100%
- Phytotoxicity (Cyperus difformis [4]): 100%
- Phytotoxicity (Amaranthus viridis): 90%
- Phytotoxicity (Lindernia procumbens [5]): 100%
- Phytotoxicity (Zea mays): 0%
- Phytotoxicity (Oryza sativa [6]): 0%
- Phytotoxicity (Chenopodium album): 90%
- Phytotoxicity (Rotala indica [7]): 100%
- Phytotoxicity (Echinochloa oryzicola [8]): 60%

Structure (SMILES): CC(C)=C1OC(=O)N(c2cc(Cl)cc(Cl)c2)C1=O
- Phytotoxicity (Rotala indica [9]): 50%
- Phytotoxicity (Elatine triandra [10]): 50%
- Phytotoxicity (Pontederia vaginalis [11]): 50%
- Phytotoxicity [12]: 30%
- Phytotoxicity (Oryza sativa [13]): 0%
- Phytotoxicity (Lindernia procumbens [14]): 50%
- Phytotoxicity (Echinochloa oryzicola [15]): 0%
- Phytotoxicity (Cyperus difformis [16]): 30%

Structure (SMILES): C#CC(C)Oc1cc(N2C(=O)OC(=C(C)C)C2=O)c(F)cc1Cl (stereo not given)
- Selectivity Index [17]: 2
- ED10 (Oryza sativa [18]): 12.5 gAi/ha
- ED10 (Oryza sativa [19]): 6.25 gAi/ha
- Selectivity Index [20]: 4
- Phytotoxicity (Zea mays): 10%
- Phytotoxicity (Oryza sativa [6]): 20%

Structure (SMILES): CC(C)=C1OC(=O)N(c2cc(O)c(Cl)cc2F)C1=O
- Phytotoxicity (Echinochloa crus-galli): 0%
- Phytotoxicity (Pontederia vaginalis [1]): 10%
- Phytotoxicity (Digitaria ciliaris): 0%
- Phytotoxicity [2]: 0%
- Phytotoxicity (Elatine triandra [3]): 10%
- Phytotoxicity (Cyperus difformis [4]): 30%
- Phytotoxicity (Amaranthus viridis): 0%
- Phytotoxicity (Lindernia procumbens [5]): 10%
- Phytotoxicity (Zea mays): 0%
- Phytotoxicity (Oryza sativa [6]): 0%
- Phytotoxicity (Chenopodium album): 10%
- Phytotoxicity (Rotala indica [7]): 10%
- Phytotoxicity (Echinochloa oryzicola [8]): 0%

Structure (SMILES): CCOc1cc(N2C(=O)OC(=C(C)C)C2=O)c(F)cc1Cl
- Phytotoxicity (Echinochloa crus-galli): 50%
- Phytotoxicity (Pontederia vaginalis [1]): 100%
- Phytotoxicity (Digitaria ciliaris): 90%
- Phytotoxicity [2]: 60%
- Phytotoxicity (Elatine triandra [3]): 100%
- Phytotoxicity (Cyperus difformis [4]): 100%
- Phytotoxicity (Amaranthus viridis): 100%
- Phytotoxicity (Lindernia procumbens [5]): 100%
- Phytotoxicity (Zea mays): 10%
- Phytotoxicity (Oryza sativa [6]): 10%
- Phytotoxicity (Chenopodium album): 90%
- Phytotoxicity (Rotala indica [7]): 100%
- Phytotoxicity (Echinochloa oryzicola [8]): 30%

Structure (SMILES): C=CC1(C)OC(=O)N(c2cc(Cl)cc(Cl)c2)C1=O (stereo not given) [VINCLOZOLIN]
- Phytotoxicity (Rotala indica [9]): 50%
- Phytotoxicity (Elatine triandra [10]): 50%
- Phytotoxicity (Pontederia vaginalis [11]): 50%
- Phytotoxicity [12]: 30%
- Phytotoxicity (Oryza sativa [13]): 0%
- Phytotoxicity (Lindernia procumbens [14]): 50%
- Phytotoxicity (Echinochloa oryzicola [15]): 90%
- Phytotoxicity (Cyperus difformis [16]): 50%

Structure (SMILES): CC/C(C)=C1/OC(=O)N(c2ccc(F)cc2)C1=O
- Phytotoxicity (Echinochloa oryzicola [21]): 10%
- Phytotoxicity (Oryza sativa [22]): 0%
- Phytotoxicity [23]: 60%
- Phytotoxicity (Pontederia vaginalis [24]): 100%
- Phytotoxicity (Rotala indica [25]): 100%
- Phytotoxicity (Elatine triandra [26]): 100%
- Phytotoxicity (Lindernia procumbens [27]): 100%
- Phytotoxicity (Cyperus difformis [28]): 100%

Structure (SMILES): CC(C)=C1OC(=O)N(c2ccccc2Cl)C1=O
- Phytotoxicity (Rotala indica [9]): 0%
- Phytotoxicity (Elatine triandra [10]): 0%
- Phytotoxicity (Pontederia vaginalis [11]): 0%
- Phytotoxicity [12]: 0%
- Phytotoxicity (Oryza sativa [13]): 0%
- Phytotoxicity (Lindernia procumbens [14]): 0%
- Phytotoxicity (Echinochloa oryzicola [15]): 0%
- Phytotoxicity (Cyperus difformis [16]): 0%

Structure (SMILES): CCC(C)Oc1cc(N2C(=O)OC(=C(C)C)C2=O)c(F)cc1Cl (stereo not given)
- Phytotoxicity (Echinochloa crus-galli): 20%
- Phytotoxicity (Pontederia vaginalis [1]): 100%
- Phytotoxicity (Digitaria ciliaris): 80%
- Phytotoxicity [2]: 100%
- Phytotoxicity (Elatine triandra [3]): 100%
- Phytotoxicity (Cyperus difformis [4]): 100%
- Phytotoxicity (Amaranthus viridis): 90%
- Phytotoxicity (Lindernia procumbens [5]): 100%
- Phytotoxicity (Zea mays): 0%
- Phytotoxicity (Oryza sativa [6]): 10%
- Phytotoxicity (Chenopodium album): 10%
- Phytotoxicity (Rotala indica [7]): 100%
- Phytotoxicity (Echinochloa oryzicola [8]): 80%

Structure (SMILES): COc1cc(N2C(=O)OC(=C(C)C)C2=O)c(F)cc1Cl
- Phytotoxicity (Echinochloa crus-galli): 60%
- Phytotoxicity (Pontederia vaginalis [1]): 80%
- Phytotoxicity (Digitaria ciliaris): 90%
- Phytotoxicity [2]: 10%
- Phytotoxicity (Elatine triandra [3]): 100%
- Phytotoxicity (Cyperus difformis [4]): 100%
- Phytotoxicity (Amaranthus viridis): 80%
- Phytotoxicity (Lindernia procumbens [5]): 100%
- Phytotoxicity (Zea mays): 30%
- Phytotoxicity (Oryza sativa [6]): 0%
- Phytotoxicity (Chenopodium album): 90%
- Phytotoxicity (Rotala indica [7]): 100%
- Phytotoxicity (Echinochloa oryzicola [8]): 30%

Structure (SMILES): CC(C)=C1OC(=O)N(c2c(Cl)cc(Cl)cc2Cl)C1=O
- Phytotoxicity (Rotala indica [9]): 100%
- Phytotoxicity (Elatine triandra [10]): 100%
- Phytotoxicity (Pontederia vaginalis [11]): 100%
- Phytotoxicity [12]: 20%
- Phytotoxicity (Oryza sativa [13]): 0%
- Phytotoxicity (Lindernia procumbens [14]): 100%
- Phytotoxicity (Echinochloa oryzicola [15]): 30%
- Phytotoxicity (Cyperus difformis [16]): 100%

Structure (SMILES): CCCCCCOc1cc(N2C(=O)OC(=C(C)C)C2=O)c(F)cc1Cl
- Phytotoxicity (Echinochloa crus-galli): 10%
- Phytotoxicity (Pontederia vaginalis [1]): 90%
- Phytotoxicity (Digitaria ciliaris): 10%
- Phytotoxicity [2]: 60%
- Phytotoxicity (Elatine triandra [3]): 70%
- Phytotoxicity (Cyperus difformis [4]): 80%
- Phytotoxicity (Amaranthus viridis): 100%
- Phytotoxicity (Lindernia procumbens [5]): 70%
- Phytotoxicity (Zea mays): 0%
- Phytotoxicity (Oryza sativa [6]): 0%
- Phytotoxicity (Chenopodium album): 50%
- Phytotoxicity (Rotala indica [7]): 70%
- Phytotoxicity (Echinochloa oryzicola [8]): 10%

Structure (SMILES): CC(C)=C1OC(=O)N(c2cccc(Cl)c2)C1=O
- Phytotoxicity (Rotala indica [9]): 30%
- Phytotoxicity (Elatine triandra [10]): 30%
- Phytotoxicity (Pontederia vaginalis [11]): 30%
- Phytotoxicity [12]: 10%
- Phytotoxicity (Oryza sativa [13]): 0%
- Phytotoxicity (Lindernia procumbens [14]): 30%
- Phytotoxicity (Echinochloa oryzicola [15]): 0%
- Phytotoxicity (Cyperus difformis [16]): 30%

Structure (SMILES): C=C(C)C1(C)OC(=O)N(c2cc(Cl)cc(Cl)c2)C1=O (stereo not given)
- Phytotoxicity (Rotala indica [9]): 60%
- Phytotoxicity (Elatine triandra [10]): 60%
- Phytotoxicity (Pontederia vaginalis [11]): 30%
- Phytotoxicity [12]: 20%
- Phytotoxicity (Oryza sativa [13]): 0%
- Phytotoxicity (Lindernia procumbens [14]): 60%
- Phytotoxicity (Echinochloa oryzicola [15]): 80%
- Phytotoxicity (Cyperus difformis [16]): 30%
